Laboratory results: US20190030053A1, “COMPOSITION FOR INCREASING EXPRESSION OF PGC-1alpha” (BENEBIOSIS CO., LTD., priority 2016, published 2019)

How the values were obtained:
[1] = tested on: telomerase; assay: Telomerase activity (TRAP) in vivo, aorta of aging stimulation models; parameters: species or system mouse; conditions: oral 0.1 mg/kg/day
Experimental: In order to investigate the gene expression changes by body parts by the treatment with SL (3′-SL & 6′-SL) compositions in aging stimulation models, 4-week-old male aging stimulation model mice (SAM P1/Sku Slc) were purchased from Central Lab Animal (Korea). Water was freely accessible, and a commercially available pellet feed (Dooyeul Biotech, Korea) was given for one week. […]
In FIGS. 18a and 18b, the telomerase activity was measured using TRAP protocol (Wright et al., 1995). […] The fluorescence of the thus obtained TRAP product was measured using a fluorescent plate reader to quantify telomerase activity. Relative telomerase activity was normalized by the ratio of native […] to sulforhodamine (internal control standard), expressed as a percentage. […]

[2] = tested on: mouse aortic smooth muscle cells (MASMs); assay: Intracellular H2O2 (ROS values, H2DCFDA) in MASMs of arteriosclerosis model mice; assay type: cell-based; conditions: MASMs from PGC-1α+/+ApoE−/− mice; SL added to culture liquid
Experimental: For cell-level tests, mouse aortic smooth muscle cells (MASMs) were isolated from the control group fed with a high-fat diet (Rodent Diet with 60 kcal % fat) without SL administration (Griendling et al., 1991), and the SL (3′-SL & 6′-SL) compositions were added to the culture liquid, followed by comparison. For intracellular H2O2 measurement (ROS values), the cells were cultured in 12-well culture plates immersed in 0.1% bovine calf serum. The intracellular ROS values were measured using H2DCFDA. For assay, the cells were cultured together with H2DCFDA in HBSS buffer for 30 minutes. The cells were trypsinized, washed, and lysed in HBSS. The fluorescence values were measured immediately by a CytoFluor plate reader (FIG. 19a).
(§1) In FIGS. 19a and 19b, MASMs were extracted from the model mouse (PGC-1α^+/+ApoE^−/−) control group, and the SL (3′-SL & 6′-SL) compositions were added to the culture liquid to conduct comparison.
(§2) FIGS. 19a and 19b show the measurement results of intercellular H2O2 (ROS values) (FIG. 19a) and the measurement results of mitochondrial superoxide production (FIG. 19b). MASMs were extracted from the model mice (PGC-1α^+/+ApoE^−/−), and the SL (3′-SL & 6′-SL) compositions were added to the culture liquid to conduct comparison.

[3] = tested on: mouse aortic smooth muscle cells (MASMs); assay: Mitochondrial superoxide production (MitoSOX Red) in MASMs of arteriosclerosis model mice; assay type: cell-based; conditions: MASMs from PGC-1α+/+ApoE−/− mice; SL added to culture liquid
Experimental: For the measurement of mitochondrial superoxide production, mitochondrial ROS was measured using MitoSOX Red (mitochondrial superoxide fluorescent marker). MASMs were extracted, and incubated with MitoSOX (4 μM) in the dark room at 37° C. for 20 minutes. The MitoSOX fluorescence was quantified by the cell fluorescence intensity read using a fluorescent plate reader (480 nm excitation/580 nm emission) (FIG. 19b).
as §1, §2

CC(=O)N[C@H]1[C@H]([C@H](O)[C@H](O)CO)O[C@@](O[C@H]2[C@@H](O)[C@@H](CO)O[C@@H](O[C@H]3[C@H](O)[C@@H](O)C(O)O[C@@H]3CO)[C@@H]2O)(C(=O)O)C[C@@H]1O (stereo partly drawn) [3′-SL, α-NeuNAc-(2→3)-β-D-Gal-(1→4)-D-Glc]
telomerase activity in aorta sample (in vivo) [1]: increased telomerase activity | intracellular H2O2 (ROS values) [2]: dropped the ROS values | mitochondrial superoxide production [3]: inhibited the mitochondrial superoxide production

CC(=O)N[C@H]1[C@H]([C@H](O)[C@H](O)CO)O[C@@](OC[C@H]2O[C@@H](O[C@H]3[C@H](O)[C@@H](O)[C@H](O)O[C@@H]3CO)[C@H](O)[C@@H](O)[C@H]2O)(C(=O)O)C[C@@H]1O [6′-SL, α-NeuNAc-(2→6)-β-D-Gal-(1→4)-D-Glc]
telomerase activity in aorta sample (in vivo) [1]: increased telomerase activity | intracellular H2O2 (ROS values) [2]: dropped the ROS values | mitochondrial superoxide production [3]: inhibited the mitochondrial superoxide production
